Drawing on US20230061417A1, “THIENOPYRIMIDINE DERIVATIVES AS LPA RECEPTOR 2 INHIBITORS” (CHIESI FARMACEUTICI S.P.A., priority 2019, published 2023), this text covers IC50 for 23 compounds.

Molecules are shown by their SMILES.

T1 sequence (Q9HBW0 whole entry): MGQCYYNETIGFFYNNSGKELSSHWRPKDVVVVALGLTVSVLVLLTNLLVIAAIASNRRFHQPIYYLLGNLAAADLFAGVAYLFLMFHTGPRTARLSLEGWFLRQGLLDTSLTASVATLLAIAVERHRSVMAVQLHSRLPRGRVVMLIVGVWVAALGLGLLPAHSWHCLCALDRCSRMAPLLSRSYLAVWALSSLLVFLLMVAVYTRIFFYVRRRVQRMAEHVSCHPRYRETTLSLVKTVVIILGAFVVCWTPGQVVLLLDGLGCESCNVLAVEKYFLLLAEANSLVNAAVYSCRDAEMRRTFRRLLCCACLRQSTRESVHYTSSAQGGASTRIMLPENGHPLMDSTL

One assay has as its target T1, human recombinant LPA2 (Homo sapiens, UniProt Q9HBW0).
T1 construct: expressed in transfected cells; host or cells: CHO (CHO-hLPA2 cell line)
Briefly: FLIPR calcium mobilization assay, LPA2 antagonism in CHO-hLPA2 cells. It counts as cell-based. As to conditions: human recombinant LPA2 in CHO cells, LPA EC80 stimulation, 30 min pre-incubation; read-out: LPA2 IC50. How it is done:
The effectiveness of compounds of the present invention as LPA2 antagonist can be determined at the human recombinant LPA2 expressed in CHO cells, using a FLIPR assay in 384 well format.
CHO-hLPA2 cell lines are cultured in a humidified incubator at 5% CO2 in DMEM/F-12 (1:1) MIXTURE with 2 mM Glutamax, supplemented with 10% of Foetal Bovine Serum, 1 mM Sodium Pyruvate, 11 mM Hepes and 1× Penicillin/Streptomycin. CHO hLPA2 cells are seeded into black walled clear-bottom 384-well plates (#781091, Greiner Bio-One GmbH) at a density of 7,500 cells per well in 50 μl culture media and grown overnight in a 37° C. humidified CO2-incubator. Serial dilutions (1:3 or 1:4, 11 points CRC) of compounds are performed in 100% DMSO at 200× the final concentration. The compounds are diluted 1:50 prior to the experiment with Assay Buffer (20 mM HEPES, 145 mM NaCl, 5 mM KCl, 5.5 mM glucose, 1 mM MgCl2 and 2 mM CaCl2, pH 7.4 containing 0.01% Pluronic F-127) to obtain a solution corresponding to […] the final concentration in the assay (4×, 2% DMSO). The final concentration of DMSO in the assay will be 0.5% in each well. Medium is removed by aspiration and cells are then incubated with 30 μl of a loading solution containing 5 μM of the cytoplasmic Ca2+ indicator Cal-520 AM in Assay Buffer containing 2.5 mM probenecid for 30 min at 37° C. incubator (cell loading). The loaded cell plates are transferred into the FLIPR instrument and calcium responses are monitored during the on-line addition protocols. For testing of compounds, after the cell loading, 10 μl/well of 4× antagonists' solution was added onto the cells. After 30 min pre-incubation (at 37° C.), 10 μl/well of 5× concentrated LPA EC80 was added and Ca2+ mobilization responses was followed during the on-line addition protocol. Intracellular peak fluorescence values subtracted by baseline fluorescence are exported and analysed to determine IC50 values, respectively. The calcium response is expressed as percentage of the maximal inhibition of the EC80 agonist response.
The raw data (peak height expressed as relative fluorescence units) are normalized and transformed into “percent of inhibition”. Curve fitting and pIC50 (−Log IC50) estimations are carried out using a four-parameter logistic model using XLfit Software.
What is called IC50 is the concentration needed to halve the response being measured. For the compound `CC(=O)N1CCc2cc(S(=O)(=O)N3CCN(C[C@H](C)Nc4ncnc5c(C)csc45)CC3)ccc21` [Example 24, 1-[5-({4-[(2S)-2-({7-methylthieno[3,2-d]pyrimidin-4-yl}amino)propyl]piperazin-1-yl}sulfonyl)-2,3-dihydro-1H-indol-1-yl]ethan-1-one], the IC50 is under 1000 nM.

In the case of `Cc1csc2c(N[C@@H](C)CN3CCN(S(=O)(=O)c4ccc(-c5ccno5)s4)CC3)ncnc12` [Example 21, 7-methyl-N-[(2S)-1-(4-{[5-(1,2-oxazol-5-yl)thiophen-2-yl]sulfonyl}piperazin-1-yl)propan-2-yl]thieno[3,2-d]pyrimidin-4-amine], the concentration for half-maximal inhibition (IC50) is under 1000 nM.

Turning to `Cc1csc2c(N[C@@H](C)CN3CCN(S(=O)(=O)c4cccc(Br)c4)CC3)ncnc12` [Example 7, N-[(2S)-1-[4-(3-bromobenzenesulfonyl)piperazin-1-yl]propan-2-yl]-7-methylthieno[3,2-d]pyrimidin-4-amine], the concentration for half-maximal inhibition (IC50) was under 1000 nM.

Consider `Cc1csc2c(N[C@@H](C)CN3CCN(S(=O)(=O)c4ccc(F)c(Cl)c4)CC3)ncnc12` [Example 9, N-[(2S)-1-[4-(3-chloro-4-fluorobenzenesulfonyl)piperazin-1-yl]propan-2-yl]-7-methylthieno[3,2-d]pyrimidin-4-amine], for which the half-maximal inhibitory concentration (IC50) is under 1000 nM.

Consider `COC(=O)c1ccc(S(=O)(=O)N2CCN(C[C@H](C)Nc3ncnc4c(C)csc34)CC2)s1` [Example 4, Methyl 5-({4-[(2S)-2-({7-methylthieno[3,2-d]pyrimidin-4-yl}amino)propyl]piperazin-1-yl}sulfonyl)thiophene-2-carboxylate], for which the IC50 was under 1000 nM.

Regarding `Cc1csc2c(N[C@@H](C)CN3CCN(S(=O)(=O)c4cnc(-c5ccccc5)nc4)CC3)ncnc12` [Example 15, 7-methyl-N-[(2S)-1-{4-[(2-phenylpyrimidin-5-yl)sulfonyl]piperazin-1-yl}propan-2-yl]thieno[3,2-d]pyrimidin-4-amine], the IC50 is under 1000 nM.

On to `Cc1csc2c(N[C@@H](C)CN3CCN(S(=O)(=O)c4ccc(-c5cc(C(F)(F)F)n(C)n5)s4)CC3)ncnc12` [Example 29, 7-methyl-N-[(2S)-1-[4-({5-[1-methyl-5-(trifluoromethyl)-1H-pyrazol-3-yl]thiophen-2-yl}sulfonyl)piperazin-1-yl]propan-2-yl]thieno[3,2-d]pyrimidin-4-amine], for which the IC50 is under 1000 nM.

As for `CC(=O)Nc1cc(F)c(S(=O)(=O)N2CCN(C[C@H](C)Nc3ncnc4c(C)csc34)CC2)cc1C` [Example 6, N-[5-fluoro-2-methyl-4-({4-[(2S)-2-({7-methylthieno[3,2-d]pyrimidin-4-yl}amino)propyl]piperazin-1-yl}sulfonyl)phenyl]acetamide], the IC50 is under 1000 nM.

For `Cc1nc(-c2ccc(S(=O)(=O)N3CCN(C[C@H](C)Nc4ncnc5c(C)csc45)CC3)cc2)cs1` [Example 5, 7-methyl-N-[(2S)-1-{4-[4-(2-methyl-1,3-thiazol-4-yl)benzenesulfonyl]piperazin-1-yl}propan-2-yl]thieno[3,2-d]pyrimidin-4-amine], the IC50 is under 1000 nM.

Consider `CCC(=O)Nc1nc(C)c(S(=O)(=O)N2CCN(C[C@H](C)Nc3ncnc4c(C)csc34)CC2)s1` [Example 19, N-[4-methyl-5-({4-[(2S)-2-({7-methylthieno[3,2-d]pyrimidin-4-yl}amino)propyl]piperazin-1-yl}sulfonyl)-1,3-thiazol-2-yl]propanamide], for which the half-maximal inhibitory concentration (IC50) was under 1000 nM.

For `Cc1noc(-c2ccc(S(=O)(=O)N3CCN(C[C@H](C)Nc4ncnc5c(C)csc45)CC3)s2)c1C` [Example 28, N-[(2S)-1-(4-{[5-(3,4-dimethyl-1,2-oxazol-5-yl)thiophen-2-yl]sulfonyl}piperazin-1-yl)propan-2-yl]-7-methylthieno[3,2-d]pyrimidin-4-amine], the IC50 was 10 to 100 nM.

On to `COC(=O)c1cc(Br)c(S(=O)(=O)N2CCN(C[C@H](C)Nc3ncnc4c(C)csc34)CC2)s1` [Example 13, methyl 4-bromo-5-({4-[(2S)-2-({7-methylthieno[3,2-d]pyrimidin-4-yl}amino)propyl]piperazin-1-yl}sulfonyl)thiophene-2-carboxylate], for which the IC50 is under 1000 nM.

Turning to `COC(=O)Nc1nc(C)c(S(=O)(=O)N2CCN(C[C@H](C)Nc3ncnc4c(C(F)(F)F)csc34)CC2)s1` [Example 1, methyl N-[4-methyl-5-({4-[(2S)-2-{[7-(trifluoromethyl)thieno[3,2-d]pyrimidin-4-yl]amino}propyl]piperazin-1-yl}sulfonyl)-1,3-thiazol-2-yl]carbamate], the half-maximal inhibitory concentration (IC50) was 10 to 100 nM.

Turning to `COC(=O)Nc1nc(C)c(S(=O)(=O)N2CCN(C[C@H](C)Nc3nc(C)nc4c(C)csc34)CC2)s1` [Example 37, Methyl N-[5-({4-[(2S)-2-({2,7-dimethylthieno[3,2-d]pyrimidin-4-yl}amino)propyl]piperazin-1-yl}sulfonyl)-4-methyl-1,3-thiazol-2-yl]carbamate], the IC50 was under 1000 nM.

As to `Cc1nc2ccc(S(=O)(=O)N3CCN(C[C@H](C)Nc4ncnc5c(C)csc45)CC3)cc2s1` [Example 23, 7-methyl-N-[(2S)-1-{4-[(2-methyl-1,3-benzothiazol-6-yl)sulfonyl]piperazin-1-yl}propan-2-yl]thieno[3,2-d]pyrimidin-4-amine], the half-inhibitory concentration (IC50) was under 1000 nM.

Turning to `Cc1nc(-c2ccc(S(=O)(=O)N3CCN(C[C@H](C)Nc4ncnc5c(C)csc45)CC3)s2)cs1` [Example 27, 7-methyl-N-[(2S)-1-(4-{[5-(2-methyl-1,3-thiazol-4-yl)thiophen-2-yl]sulfonyl}piperazin-1-yl)propan-2-yl]thieno[3,2-d]pyrimidin-4-amine], the half-inhibitory concentration (IC50) is under 1000 nM.

Regarding `CCc1nc(N[C@@H](C)CN2CCN(S(=O)(=O)c3sc(NC(C)=O)nc3C)CC2)c2scc(C)c2n1` [Example 36, N-[5-({4-[(2S)-2-({2-ethyl-7-methylthieno[3,2-d]pyrimidin-4-yl}amino)propyl]piperazin-1-yl}sulfonyl)-4-methyl-1,3-thiazol-2-yl]acetamide], the concentration for half-maximal inhibition (IC50) is under 1000 nM.

Turning to `Cc1nc(NC(=O)C2CN(C(=O)OC(C)(C)C)C2)sc1S(=O)(=O)N1CCN(C[C@H](C)Nc2ncnc3c(C)csc23)CC1` [Example 33, tert-butyl 3-{[4-methyl-5-({4-[(2S)-2-({7-methylthieno[3,2-d]pyrimidin-4-yl}amino)propyl]piperazin-1-yl}sulfonyl)-1,3-thiazol-2-yl]carbamoyl}azetidine-1-carboxylate], the 50% inhibitory concentration (IC50) is under 1000 nM.

Turning to `Cc1nc(NC=O)sc1S(=O)(=O)N1CCN(C[C@H](C)Nc2ncnc3c(C)csc23)CC1` [Example 26, N-[4-methyl-5-({4-[(2S)-2-({7-methylthieno[3,2-d]pyrimidin-4-yl}amino)propyl]piperazin-1-yl}sulfonyl)-1,3-thiazol-2-yl]formamide], the IC50 is under 1000 nM.

As to `COC(=O)Nc1nc(C)c(S(=O)(=O)N2CCN(C[C@H](C)Nc3nc(C4CC4)nc4c(C)csc34)CC2)s1` [Example 31, methyl N-[5-({4-[(2S)-2-({2-cyclopropyl-7-methylthieno[3,2-d]pyrimidin-4-yl}amino)propyl]piperazin-1-yl}sulfonyl)-4-methyl-1,3-thiazol-2-yl]carbamate], the IC50 lay within 10 to 100 nM.

On to `Cc1csc2c(N[C@@H](C)CN3CCN(S(=O)(=O)c4cc(Br)c(Cl)s4)CC3)ncnc12` [Example 10, N-[(2S)-1-{4-[(4-bromo-5-chlorothiophen-2-yl)sulfonyl]piperazin-1-yl}propan-2-yl]-7-methylthieno[3,2-d]pyrimidin-4-amine], for which the 50% inhibitory concentration (IC50) is under 1000 nM.

`Cc1csc(-c2ccc(S(=O)(=O)N3CCN(C[C@H](C)Nc4ncnc5c(C)csc45)CC3)cc2)n1` [Example 17, 7-methyl-N-[(2S)-1-{4-[4-(4-methyl-1,3-thiazol-2-yl)benzenesulfonyl]piperazin-1-yl}propan-2-yl]thieno[3,2-d]pyrimidin-4-amine]: the IC50 was under 1000 nM.

Staying with this assay, now noted: same in vitro assay as Table 2; read-out: IC50 on LPA2 receptor.
`COC(=O)Nc1nc(C)c(S(=O)(=O)N2CCN(C[C@H](C)Nc3ncnc4c(-c5cccnc5)cn(C)c34)CC2)s1` [comparative Example A, Methyl (S)-(4-methyl-5-((4-(2-((5-methyl-7-(pyridin-3-yl)-5H-pyrrolo[3,2-d]pyrimidin-4-yl)amino)propyl)piperazin-1-yl)sulfonyl)thiazol-2-yl)carbamate, reference compound]: the concentration for half-maximal inhibition (IC50) is over 2000 nM.
